Activity calls are given as the source filed them. No cut-off for these calls is given here.
Columns and labels:
[1] = target: Calcium-dependent protein kinase 1 (Plasmodium falciparum) (UniProt P62344); assay: Inhibition of Plasmodium falciparum PFCDPK1 at 1 uM by Ambit Kinomescan binding assay relative to control; values are per cent of control
[2] = target: Serine/threonine-protein kinase MRCK beta (Homo sapiens) (UniProt Q9Y5S2); assay: Inhibition of MRCKb in human A-375 cells at 5 uM by KiNativ Profiling analysis relative to control; assay type: cell-based
Serine/threonine-protein kinase MRCK beta (Homo sapiens), sequence (Q9Y5S2 whole entry): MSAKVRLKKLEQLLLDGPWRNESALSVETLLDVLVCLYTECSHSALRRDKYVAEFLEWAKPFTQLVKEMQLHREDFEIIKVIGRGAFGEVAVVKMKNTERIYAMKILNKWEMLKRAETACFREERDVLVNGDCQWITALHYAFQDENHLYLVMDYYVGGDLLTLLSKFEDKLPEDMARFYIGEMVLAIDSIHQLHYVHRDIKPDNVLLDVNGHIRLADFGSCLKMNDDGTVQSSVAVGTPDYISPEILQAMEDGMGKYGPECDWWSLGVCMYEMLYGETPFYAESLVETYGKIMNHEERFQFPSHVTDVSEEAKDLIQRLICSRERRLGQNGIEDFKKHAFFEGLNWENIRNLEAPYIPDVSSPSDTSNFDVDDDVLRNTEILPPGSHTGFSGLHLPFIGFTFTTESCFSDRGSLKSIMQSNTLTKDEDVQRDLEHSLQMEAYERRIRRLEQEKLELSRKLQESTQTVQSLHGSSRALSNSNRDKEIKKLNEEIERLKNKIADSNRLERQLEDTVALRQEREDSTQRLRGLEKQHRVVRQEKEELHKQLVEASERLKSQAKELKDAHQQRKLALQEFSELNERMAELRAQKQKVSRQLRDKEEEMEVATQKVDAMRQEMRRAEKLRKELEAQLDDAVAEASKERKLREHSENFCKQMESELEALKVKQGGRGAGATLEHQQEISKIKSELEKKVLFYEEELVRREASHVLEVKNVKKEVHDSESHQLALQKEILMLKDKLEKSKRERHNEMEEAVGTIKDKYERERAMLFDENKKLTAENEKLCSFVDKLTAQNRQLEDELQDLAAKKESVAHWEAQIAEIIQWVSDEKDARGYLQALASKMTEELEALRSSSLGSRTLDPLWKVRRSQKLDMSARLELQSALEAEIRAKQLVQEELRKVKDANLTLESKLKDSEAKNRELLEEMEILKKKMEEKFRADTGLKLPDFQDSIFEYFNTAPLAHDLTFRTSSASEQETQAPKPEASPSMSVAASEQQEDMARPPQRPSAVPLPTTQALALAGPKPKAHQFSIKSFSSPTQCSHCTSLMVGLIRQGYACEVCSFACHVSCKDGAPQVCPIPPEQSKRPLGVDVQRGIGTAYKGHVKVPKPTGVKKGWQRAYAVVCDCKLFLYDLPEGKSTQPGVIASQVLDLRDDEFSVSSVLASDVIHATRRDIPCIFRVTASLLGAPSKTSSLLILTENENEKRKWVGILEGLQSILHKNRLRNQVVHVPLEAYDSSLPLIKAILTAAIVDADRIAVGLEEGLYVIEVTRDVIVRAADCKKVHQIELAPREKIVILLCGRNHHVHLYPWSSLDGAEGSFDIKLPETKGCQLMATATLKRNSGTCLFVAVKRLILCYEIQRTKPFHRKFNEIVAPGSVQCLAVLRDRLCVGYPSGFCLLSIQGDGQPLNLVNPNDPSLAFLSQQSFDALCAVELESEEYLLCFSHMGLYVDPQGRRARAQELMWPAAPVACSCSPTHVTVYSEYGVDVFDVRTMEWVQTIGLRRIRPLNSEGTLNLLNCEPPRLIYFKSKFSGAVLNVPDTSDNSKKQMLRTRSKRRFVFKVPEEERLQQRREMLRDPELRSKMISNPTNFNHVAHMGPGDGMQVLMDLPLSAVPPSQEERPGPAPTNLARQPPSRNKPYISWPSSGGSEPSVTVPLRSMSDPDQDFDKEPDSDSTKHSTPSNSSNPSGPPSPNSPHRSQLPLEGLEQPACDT

[3] = target: T1, Receptor-interacting serine/threonine-protein kinase 4 (Homo sapiens) (UniProt P57078); assay: Inhibition of ANKRD3 Lys1 labeling site in human A-375 cells at 0.05 uM by KiNativ Profiling analysis relative to control; assay type: cell-based
T1 sequence (whole entry): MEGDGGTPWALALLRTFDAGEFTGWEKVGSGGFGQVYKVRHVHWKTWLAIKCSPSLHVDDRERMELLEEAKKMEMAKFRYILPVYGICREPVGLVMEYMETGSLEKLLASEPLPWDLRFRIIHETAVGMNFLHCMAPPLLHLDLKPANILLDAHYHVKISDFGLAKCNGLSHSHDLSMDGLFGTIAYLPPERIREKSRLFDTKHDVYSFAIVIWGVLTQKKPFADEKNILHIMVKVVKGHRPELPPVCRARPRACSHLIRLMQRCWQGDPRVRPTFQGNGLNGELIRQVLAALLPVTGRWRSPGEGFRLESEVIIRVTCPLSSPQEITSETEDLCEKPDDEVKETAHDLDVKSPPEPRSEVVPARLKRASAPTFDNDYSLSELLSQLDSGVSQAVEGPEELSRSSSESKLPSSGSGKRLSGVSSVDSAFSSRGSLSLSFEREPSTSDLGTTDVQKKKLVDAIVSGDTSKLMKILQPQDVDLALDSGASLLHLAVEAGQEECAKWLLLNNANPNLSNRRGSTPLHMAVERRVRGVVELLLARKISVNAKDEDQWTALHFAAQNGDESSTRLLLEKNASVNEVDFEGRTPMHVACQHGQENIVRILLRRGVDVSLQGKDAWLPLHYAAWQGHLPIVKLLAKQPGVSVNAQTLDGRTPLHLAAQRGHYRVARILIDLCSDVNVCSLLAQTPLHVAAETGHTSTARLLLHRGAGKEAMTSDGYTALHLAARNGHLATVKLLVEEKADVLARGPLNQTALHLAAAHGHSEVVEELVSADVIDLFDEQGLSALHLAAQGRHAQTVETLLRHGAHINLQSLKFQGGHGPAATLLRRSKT

[4] = target: Macrophage-stimulating protein receptor (Homo sapiens) (UniProt Q04912); assay: Inhibition of MST1R (unknown origin) at 10 uM by Ambit Kinomescan binding assay
[5] = target: Fibroblast growth factor receptor 3 (Homo sapiens) (UniProt P22607); assay: Inhibition of FGFR3 (unknown origin) at 10 uM by Ambit Kinomescan binding assay relative to control
Fibroblast growth factor receptor 3 (Homo sapiens), sequence (P22607 23-806 limits assumed): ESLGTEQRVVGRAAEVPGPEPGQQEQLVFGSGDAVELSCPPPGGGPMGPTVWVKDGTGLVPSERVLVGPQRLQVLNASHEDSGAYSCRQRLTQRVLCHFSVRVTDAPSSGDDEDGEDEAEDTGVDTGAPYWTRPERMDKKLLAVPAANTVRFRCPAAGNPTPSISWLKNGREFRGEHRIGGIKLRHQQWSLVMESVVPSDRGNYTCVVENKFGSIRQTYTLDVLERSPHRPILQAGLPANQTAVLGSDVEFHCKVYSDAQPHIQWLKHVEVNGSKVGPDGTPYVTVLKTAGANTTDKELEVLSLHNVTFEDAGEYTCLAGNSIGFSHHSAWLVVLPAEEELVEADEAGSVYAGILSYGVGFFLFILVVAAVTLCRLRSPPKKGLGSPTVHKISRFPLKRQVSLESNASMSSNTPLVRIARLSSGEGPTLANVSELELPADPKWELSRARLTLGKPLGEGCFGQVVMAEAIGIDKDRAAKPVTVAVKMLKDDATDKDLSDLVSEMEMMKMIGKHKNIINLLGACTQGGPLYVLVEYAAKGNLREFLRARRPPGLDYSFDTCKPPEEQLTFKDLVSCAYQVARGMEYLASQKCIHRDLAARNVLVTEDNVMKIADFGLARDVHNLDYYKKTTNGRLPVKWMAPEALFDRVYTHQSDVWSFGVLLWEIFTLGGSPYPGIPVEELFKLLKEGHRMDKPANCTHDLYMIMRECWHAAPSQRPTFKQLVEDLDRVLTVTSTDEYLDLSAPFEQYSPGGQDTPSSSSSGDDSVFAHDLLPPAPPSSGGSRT

[6] = target: Serine/threonine-protein kinase PLK1 (Homo sapiens) (UniProt P53350); assay: Inhibition of PLK1 Lys2 labeling site in human A-375 cells at 5 uM by KiNativ Profiling analysis relative to control; assay type: cell-based
[7] = target: Microtubule-associated serine/threonine-protein kinase 2 (Homo sapiens) (UniProt Q6P0Q8); assay: Inhibition of MAST2 Lys2 labeling site harbouring DLKPDNLLVTSMGHIK in human Huh-7 cells at 1 uM by KiNativ Profiling analysis relative to control; assay type: cell-based
Microtubule-associated serine/threonine-protein kinase 2 (Homo sapiens), sequence (Q6P0Q8 whole entry): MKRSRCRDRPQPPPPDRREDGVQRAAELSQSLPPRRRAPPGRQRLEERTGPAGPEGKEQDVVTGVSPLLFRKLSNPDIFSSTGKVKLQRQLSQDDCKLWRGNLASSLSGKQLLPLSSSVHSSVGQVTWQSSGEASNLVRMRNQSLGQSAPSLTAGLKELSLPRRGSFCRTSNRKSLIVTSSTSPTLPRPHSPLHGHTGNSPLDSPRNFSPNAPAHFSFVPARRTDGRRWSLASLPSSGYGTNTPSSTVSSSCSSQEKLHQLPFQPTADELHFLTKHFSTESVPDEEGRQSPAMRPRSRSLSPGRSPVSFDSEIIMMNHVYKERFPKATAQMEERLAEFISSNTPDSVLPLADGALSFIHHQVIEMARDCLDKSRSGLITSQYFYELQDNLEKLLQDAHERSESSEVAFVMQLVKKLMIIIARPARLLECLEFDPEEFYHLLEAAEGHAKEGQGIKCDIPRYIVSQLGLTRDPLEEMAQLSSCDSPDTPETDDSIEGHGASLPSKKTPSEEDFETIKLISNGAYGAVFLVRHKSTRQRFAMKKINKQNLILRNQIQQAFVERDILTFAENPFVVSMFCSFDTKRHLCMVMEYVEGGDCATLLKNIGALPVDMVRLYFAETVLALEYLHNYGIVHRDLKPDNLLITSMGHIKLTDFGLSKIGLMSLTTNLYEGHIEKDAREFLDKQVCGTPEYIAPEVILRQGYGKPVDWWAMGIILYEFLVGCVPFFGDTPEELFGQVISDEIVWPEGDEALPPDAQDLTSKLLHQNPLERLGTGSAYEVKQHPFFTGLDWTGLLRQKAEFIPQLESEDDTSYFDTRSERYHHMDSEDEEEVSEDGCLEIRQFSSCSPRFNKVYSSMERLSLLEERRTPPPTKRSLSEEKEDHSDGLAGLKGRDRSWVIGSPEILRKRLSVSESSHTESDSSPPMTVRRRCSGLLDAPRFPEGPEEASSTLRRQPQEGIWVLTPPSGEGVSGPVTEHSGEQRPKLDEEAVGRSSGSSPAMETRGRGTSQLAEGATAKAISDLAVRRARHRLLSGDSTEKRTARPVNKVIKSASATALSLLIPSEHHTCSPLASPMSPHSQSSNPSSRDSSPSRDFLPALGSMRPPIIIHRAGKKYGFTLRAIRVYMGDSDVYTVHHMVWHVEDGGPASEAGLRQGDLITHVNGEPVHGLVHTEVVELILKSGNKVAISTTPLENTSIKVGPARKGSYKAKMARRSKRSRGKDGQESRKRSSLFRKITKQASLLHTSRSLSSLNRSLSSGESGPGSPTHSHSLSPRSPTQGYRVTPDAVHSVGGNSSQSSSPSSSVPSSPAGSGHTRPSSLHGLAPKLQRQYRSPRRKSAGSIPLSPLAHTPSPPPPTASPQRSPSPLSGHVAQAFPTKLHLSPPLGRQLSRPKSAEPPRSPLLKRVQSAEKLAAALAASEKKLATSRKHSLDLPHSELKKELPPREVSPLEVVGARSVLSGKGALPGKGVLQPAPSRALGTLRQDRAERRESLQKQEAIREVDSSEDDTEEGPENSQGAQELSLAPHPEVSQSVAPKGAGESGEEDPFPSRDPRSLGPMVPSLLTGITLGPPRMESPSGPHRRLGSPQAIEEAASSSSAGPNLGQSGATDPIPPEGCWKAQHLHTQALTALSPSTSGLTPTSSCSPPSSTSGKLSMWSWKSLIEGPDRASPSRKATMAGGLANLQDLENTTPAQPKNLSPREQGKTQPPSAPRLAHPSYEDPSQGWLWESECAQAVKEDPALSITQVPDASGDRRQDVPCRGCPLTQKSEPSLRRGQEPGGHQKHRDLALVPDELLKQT

[8] = target: T2, Serine/threonine-protein kinase TAO2 (Homo sapiens) (UniProt Q9UL54); assay: Inhibition of TAO2 Lys2 labeling site in human Huh-7 cells at 1 uM by KiNativ Profiling analysis relative to control; assay type: cell-based
T2 sequence (whole entry): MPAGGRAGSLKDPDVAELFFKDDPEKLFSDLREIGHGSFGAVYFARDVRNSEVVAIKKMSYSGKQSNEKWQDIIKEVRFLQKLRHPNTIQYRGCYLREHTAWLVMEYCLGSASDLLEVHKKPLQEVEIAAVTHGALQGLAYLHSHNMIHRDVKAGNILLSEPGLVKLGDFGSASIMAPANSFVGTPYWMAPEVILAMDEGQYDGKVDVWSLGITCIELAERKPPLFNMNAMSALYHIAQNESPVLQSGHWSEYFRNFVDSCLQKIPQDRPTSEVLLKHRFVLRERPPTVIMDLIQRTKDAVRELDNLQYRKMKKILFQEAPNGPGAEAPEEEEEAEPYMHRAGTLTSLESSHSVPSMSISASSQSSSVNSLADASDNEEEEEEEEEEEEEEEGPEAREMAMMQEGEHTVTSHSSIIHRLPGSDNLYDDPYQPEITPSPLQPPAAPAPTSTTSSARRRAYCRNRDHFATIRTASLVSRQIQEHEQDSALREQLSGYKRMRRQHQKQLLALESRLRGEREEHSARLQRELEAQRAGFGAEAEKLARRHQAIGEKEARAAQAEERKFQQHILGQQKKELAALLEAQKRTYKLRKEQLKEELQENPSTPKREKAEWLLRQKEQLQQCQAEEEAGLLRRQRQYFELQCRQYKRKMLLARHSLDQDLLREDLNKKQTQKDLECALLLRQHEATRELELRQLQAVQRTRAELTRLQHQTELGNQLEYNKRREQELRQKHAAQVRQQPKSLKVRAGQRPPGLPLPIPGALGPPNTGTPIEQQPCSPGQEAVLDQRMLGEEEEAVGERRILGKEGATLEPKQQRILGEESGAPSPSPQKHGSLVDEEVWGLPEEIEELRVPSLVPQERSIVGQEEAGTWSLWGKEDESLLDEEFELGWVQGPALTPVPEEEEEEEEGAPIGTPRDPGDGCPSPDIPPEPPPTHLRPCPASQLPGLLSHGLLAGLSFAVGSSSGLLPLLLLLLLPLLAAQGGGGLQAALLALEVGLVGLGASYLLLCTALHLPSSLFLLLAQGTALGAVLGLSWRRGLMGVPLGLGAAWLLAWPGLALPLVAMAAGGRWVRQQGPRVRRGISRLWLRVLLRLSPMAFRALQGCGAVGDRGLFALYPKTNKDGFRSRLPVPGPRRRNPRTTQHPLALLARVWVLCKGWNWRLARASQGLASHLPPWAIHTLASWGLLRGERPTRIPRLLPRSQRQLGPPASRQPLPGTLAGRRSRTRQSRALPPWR

Calcium-dependent protein kinase 1 (Plasmodium falciparum), sequence (P62344 2-524 limits assumed): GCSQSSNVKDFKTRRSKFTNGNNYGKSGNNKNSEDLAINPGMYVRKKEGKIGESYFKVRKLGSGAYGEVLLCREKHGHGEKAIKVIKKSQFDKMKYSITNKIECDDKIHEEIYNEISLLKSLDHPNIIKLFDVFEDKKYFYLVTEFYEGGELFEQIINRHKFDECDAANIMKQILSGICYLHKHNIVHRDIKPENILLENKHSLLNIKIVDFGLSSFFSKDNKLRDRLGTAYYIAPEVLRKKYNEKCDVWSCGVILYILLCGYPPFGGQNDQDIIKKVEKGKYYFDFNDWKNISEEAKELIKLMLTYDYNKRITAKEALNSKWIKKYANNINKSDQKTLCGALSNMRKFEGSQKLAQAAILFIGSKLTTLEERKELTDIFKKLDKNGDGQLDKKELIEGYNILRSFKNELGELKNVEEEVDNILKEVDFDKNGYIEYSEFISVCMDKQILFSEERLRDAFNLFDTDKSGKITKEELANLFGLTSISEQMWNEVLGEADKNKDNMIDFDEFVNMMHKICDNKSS

Work on `CCN1CCN(Cc2ccc(NC(=O)c3ccc(C)c(/C=C/c4cnc5[nH]ccc5c4OC)c3)cc2C(F)(F)F)CC1` yielded a residual activity [1] of 4.3% and an inhibition [2] of 8.4%.

For `CCN1CCN(Cc2ccc(NC(=O)c3ccc(C)c(Oc4ccnc5[nH]ccc45)c3)cc2C(F)(F)F)CC1`, the inhibition [3] was 32.4%, the inhibition [4] was “inactive” and the inhibition [5] was 9.4%. It also gave an inhibition [6] of 17.6%.

Work on `CNc1cc(Oc2cc(C(=O)Nc3cc(N4CCN(C)CC4)cc(C(F)(F)F)c3)ccc2C)ncn1` yielded an inhibition [7] of 30.2% and an inhibition [8] of 35.6%.

— ChEMBL document CHEMBL5696442, “Discovery of type II inhibitors of TGFβ-activated kinase 1 (TAK1) and mitogen-activated protein kinase kinase kinase kinase 2 (MAP4K2)” (J Med Chem, 2015)
